Reference: PubChem BioAssay AID2060497 (Molecular Pharmacology Branch, DTP, NCI, 2025)

System: 317291-083-R-J1-PDC complex spheroids, viability
Assay: Anticancer human tumor 317291-083-R-J1-PDC patient-derived soft tissue sarcoma cell line growth inhibition [GQUAD]
Conditions: for IC50: curve of first compound; for viability, T/C: stronger effect = lower value
Outline: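 Multi-cell-type spheroids of tumor cells with HUVEC and mesenchymal stem cells, treated with drug combinations. Concentrations descend in half-log steps from near clinical Cmax, or from 10 microM where Cmax is unknown; viability read-out.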

[1] = second compound 0.0316 µM, first compound 0.0316 µM
[2] = second compound 0.0316 µM, first compound 0.316 µM
[3] = second compound 0.1 µM, first compound 0.0316 µM
[4] = second compound 0.1 µM, first compound 0.316 µM
[5] = second compound 0.316 µM, first compound 0.0316 µM
[6] = second compound 0.316 µM, first compound 0.316 µM
[7] = second compound 1 µM, first compound 0.0316 µM
[8] = second compound 1 µM, first compound 0.316 µM
[9] = second compound 3.16 µM, first compound 0.0316 µM
[10] = second compound 3.16 µM, first compound 0.316 µM
[11] = second compound 10 µM, first compound 0.0316 µM
[12] = second compound 10 µM, first compound 0.316 µM
[13] = second compound 0.0316 µM, first compound 0.1 µM
[14] = second compound 0.0316 µM, first compound 1 µM
[15] = second compound 0.0316 µM, first compound 3.16 µM
[16] = second compound 0.0316 µM, first compound 10 µM
[17] = second compound 0.1 µM, first compound 0.1 µM
[18] = second compound 0.1 µM, first compound 1 µM
[19] = second compound 0.1 µM, first compound 3.16 µM
[20] = second compound 0.1 µM, first compound 10 µM
[21] = second compound 0.316 µM, first compound 0.1 µM
[22] = second compound 0.316 µM, first compound 1 µM
[23] = second compound 0.316 µM, first compound 3.16 µM
[24] = second compound 0.316 µM, first compound 10 µM
[25] = second compound 1 µM, first compound 0.1 µM
[26] = second compound 1 µM, first compound 1 µM
[27] = second compound 1 µM, first compound 3.16 µM
[28] = second compound 1 µM, first compound 10 µM
[29] = second compound 3.16 µM, first compound 0.1 µM
[30] = second compound 3.16 µM, first compound 1 µM
[31] = second compound 3.16 µM, first compound 3.16 µM
[32] = second compound 3.16 µM, first compound 10 µM
[33] = second compound 10 µM, first compound 0.1 µM
[34] = second compound 10 µM, first compound 1 µM
[35] = second compound 10 µM, first compound 3.16 µM
[36] = second compound 10 µM, first compound 10 µM
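Note: spheroids exposed to compounds for one week before readout.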
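Throughout, for viability, T/C: percent viability relative to DMSO vehicle wells taken as 100%.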

Work on `CC[C@@]1(O)C(=O)OCc2c1cc1n(c2=O)Cc2cc3c(CN(C)C)c(O)ccc3nc2-1` + CN(C)c1ccc(Nc2c3ccc(NC(=O)CCN4CCCC4)cc3nc3cc(NC(=O)CCN4CCCC4)ccc23)cc1 yielded an IC50 (second compound 0.0316 µM) of 54.9 nM, an IC50 (second compound 0.1 µM) of 50.5 nM and an IC50 (second compound 0.316 µM) of 25.9 nM. For the same compound, the IC50 (second compound 1 µM) was under 0.999 nM, the IC50 (second compound 3.16 µM) was under 0.999 nM and the IC50 (second compound 10 µM) was under 0.999 nM. It also gave a viability, T/C (second compound 0.0316 µM, first compound 0.000999 µM) of 99.5%, a viability, T/C (second compound 0.0316 µM, first compound 0.00316 µM) of 98.3% and a viability, T/C (second compound 0.0316 µM, first compound 0.00999 µM) of 109%. For the same compound, the viability, T/C [1] was 70.3%, the viability, T/C (second compound 0.0316 µM, first compound 0.0999 µM) was 29% and the viability, T/C [2] was 16.7%. The viability, T/C (second compound 0.1 µM, first compound 0.000999 µM) was 95%, the viability, T/C (second compound 0.1 µM, first compound 0.00316 µM) was 85.4% and the viability, T/C (second compound 0.1 µM, first compound 0.00999 µM) was 94%. The viability, T/C [3] was 65.5%, the viability, T/C (second compound 0.1 µM, first compound 0.0999 µM) was 26.9% and the viability, T/C [4] was 15.9%. For the same compound, the viability, T/C (second compound 0.316 µM, first compound 0.000999 µM) was 79.8%, the viability, T/C (second compound 0.316 µM, first compound 0.00316 µM) was 90.8% and the viability, T/C (second compound 0.316 µM, first compound 0.00999 µM) was 74.7%. The viability, T/C [5] was 42.6%, the viability, T/C (second compound 0.316 µM, first compound 0.0999 µM) was 28.9% and the viability, T/C [6] was 14.9%. The viability, T/C (second compound 1 µM, first compound 0.000999 µM) was 49%, the viability, T/C (second compound 1 µM, first compound 0.00316 µM) was 42.6% and the viability, T/C (second compound 1 µM, first compound 0.00999 µM) was 48.5%. The viability, T/C [7] was 36.7%, the viability, T/C (second compound 1 µM, first compound 0.0999 µM) was 18.1% and the viability, T/C [8] was 9.13%. The viability, T/C (second compound 3.16 µM, first compound 0.000999 µM) was 28.4%, the viability, T/C (second compound 3.16 µM, first compound 0.00316 µM) was 24.1% and the viability, T/C (second compound 3.16 µM, first compound 0.00999 µM) was 22.8%. For the same compound, the viability, T/C [9] was 15.4%, the viability, T/C (second compound 3.16 µM, first compound 0.0999 µM) was 11.5% and the viability, T/C [10] was 9.22%. The viability, T/C (second compound 10 µM, first compound 0.000999 µM) was 9.99%, the viability, T/C (second compound 10 µM, first compound 0.00316 µM) was 16.1% and the viability, T/C (second compound 10 µM, first compound 0.00999 µM) was 5.13%. The viability, T/C [11] was 5.79%, the viability, T/C (second compound 10 µM, first compound 0.0999 µM) was 8.35% and the viability, T/C [12] was 4.27%.
Work on `Nc1ccn(C2OC(CO)C(O)C2(F)F)c(=O)n1` (stereo not drawn) + Cc1[nH]c2ccc(F)cc2c1-c1nc2c3cccnc3c3ncccc3c2[nH]1 yielded an IC50 (second compound 0.0316 µM) of 44.8 nM, an IC50 (second compound 0.1 µM) of 42.8 nM and an IC50 (second compound 0.316 µM) of 32.8 nM. For the same compound, the IC50 (second compound 1 µM) was 37.1 nM, the IC50 (second compound 3.16 µM) was 35.1 nM and the IC50 (second compound 10 µM) was under 31.6 nM. It also gave a viability, T/C [1] of 63%, a viability, T/C [13] of 20.3% and a viability, T/C [2] of 11.9%. It also gave a viability, T/C [14] of 11%, a viability, T/C [15] of 11.8% and a viability, T/C [16] of 8.15%. For the same compound, the viability, T/C [3] was 57.9%, the viability, T/C [17] was 27.4% and the viability, T/C [4] was 14.8%. The viability, T/C [18] was 12.3%, the viability, T/C [19] was 11% and the viability, T/C [20] was 9.19%. For the same compound, the viability, T/C [5] was 51.2%, the viability, T/C [21] was 16.1% and the viability, T/C [6] was 13.1%. For the same compound, the viability, T/C [22] was 16.2%, the viability, T/C [23] was 10.3% and the viability, T/C [24] was 8.34%. The viability, T/C [7] was 55.6%, the viability, T/C [25] was 15.8% and the viability, T/C [8] was 10.5%. The viability, T/C [26] was 9.19%, the viability, T/C [27] was 9.71% and the viability, T/C [28] was 8.18%. It also gave a viability, T/C [9] of 52.8%, a viability, T/C [29] of 22.5% and a viability, T/C [10] of 12%. It also gave a viability, T/C [30] of 12%, a viability, T/C [31] of 11.2% and a viability, T/C [32] of 10.7%. For the same compound, the viability, T/C [11] was 40.3%, the viability, T/C [33] was 13.2% and the viability, T/C [12] was 10.2%. It also gave a viability, T/C [34] of 8.15%, a viability, T/C [35] of 13.3% and a viability, T/C [36] of 9.1%.
With `COc1cc(C2c3cc4c(cc3C(OC3OC5COC(C)OC5C(O)C3O)C3COC(=O)C23)OCO4)cc(OC)c1O` (stereo not drawn) + Cc1cnc(CNC(=O)c2c(=O)c3ccc(N4CCCN(C)CC4)nc3n3c2sc2ccccc23)cn1 the IC50 (second compound 0.0316 µM) was 233 nM, the IC50 (second compound 0.1 µM) was 69.2 nM and the IC50 (second compound 0.316 µM) was 66.7 nM. For the same compound, the IC50 (second compound 1 µM) was under 31.6 nM, the IC50 (second compound 3.16 µM) was under 31.6 nM and the IC50 (second compound 10 µM) was under 31.6 nM. The viability, T/C [1] was 81.6%, the viability, T/C [13] was 68.3% and the viability, T/C [2] was 41.4%. It also gave a viability, T/C [14] of 27.7%, a viability, T/C [15] of 15.4% and a viability, T/C [16] of 11.6%. The viability, T/C [3] was 57.5%, the viability, T/C [17] was 46.3% and the viability, T/C [4] was 35.3%. For the same compound, the viability, T/C [18] was 24.9%, the viability, T/C [19] was 15.6% and the viability, T/C [20] was 9.12%. It also gave a viability, T/C [5] of 70.5%, a viability, T/C [21] of 39.3% and a viability, T/C [6] of 19.3%. For the same compound, the viability, T/C [22] was 18.8%, the viability, T/C [23] was 16.2% and the viability, T/C [24] was 10.7%. It also gave a viability, T/C [7] of 35.9%, a viability, T/C [25] of 28.4% and a viability, T/C [8] of 22.7%. The viability, T/C [26] was 18.7%, the viability, T/C [27] was 9.1% and the viability, T/C [28] was 8.25%. For the same compound, the viability, T/C [9] was 22.9%, the viability, T/C [29] was 41.3% and the viability, T/C [10] was 14.7%. The viability, T/C [30] was 13.1%, the viability, T/C [31] was 9.56% and the viability, T/C [32] was 3.72%. It also gave a viability, T/C [11] of 28.6%, a viability, T/C [33] of 14.6% and a viability, T/C [12] of 9.56%. It also gave a viability, T/C [34] of 10.8%, a viability, T/C [35] of 5.33% and a viability, T/C [36] of 11.2%.
With `C#Cc1c(F)ccc2cc(O)cc(-c3ncc4c(N5CC6CCC(C5)N6)nc(OCC56CCCN5CC(F)C6)nc4c3F)c12` (stereo not drawn) + CN(C)c1ccc(Nc2c3ccc(NC(=O)CCN4CCCC4)cc3nc3cc(NC(=O)CCN4CCCC4)ccc23)cc1 the IC50 (second compound 0.0316 µM) was 5660 nM, the IC50 (second compound 0.1 µM) was 5140 nM and the IC50 (second compound 0.316 µM) was 1010 nM. For the same compound, the IC50 (second compound 1 µM) was under 31.6 nM, the IC50 (second compound 3.16 µM) was under 31.6 nM and the IC50 (second compound 10 µM) was under 31.6 nM. It also gave a viability, T/C [1] of 111%, a viability, T/C [13] of 90.8% and a viability, T/C [2] of 106%. It also gave a viability, T/C [14] of 107%, a viability, T/C [15] of 68% and a viability, T/C [16] of 32.4%. It also gave a viability, T/C [3] of 91.3%, a viability, T/C [17] of 98.9% and a viability, T/C [4] of 89.5%. It also gave a viability, T/C [18] of 86.2%, a viability, T/C [19] of 64.8% and a viability, T/C [20] of 29.6%. The viability, T/C [5] was 72.7%, the viability, T/C [21] was 74.4% and the viability, T/C [6] was 62.9%. For the same compound, the viability, T/C [22] was 49.9%, the viability, T/C [23] was 47.9% and the viability, T/C [24] was 42.1%. The viability, T/C [7] was 46.9%, the viability, T/C [25] was 35% and the viability, T/C [8] was 27.5%. For the same compound, the viability, T/C [26] was 19.7%, the viability, T/C [27] was 17.1% and the viability, T/C [28] was 0.42%. For the same compound, the viability, T/C [9] was 5.12%, the viability, T/C [29] was 2.52% and the viability, T/C [10] was 4.56%. It also gave a viability, T/C [30] of 2.64%, a viability, T/C [31] of 1.07% and a viability, T/C [32] of 0.36%. The viability, T/C [11] was 0.32%, the viability, T/C [33] was 0.73% and the viability, T/C [12] was 0.29%. For the same compound, the viability, T/C [34] was 0.39%, the viability, T/C [35] was 0.24% and the viability, T/C [36] was 0.39%.
